Where “and” joins values, the source holds several entries; their conditions need not be identical. Equal values may be shown once. Entries after “also recorded” stand apart in the source; their conditions may differ.
What was measured:
[1] = tested on: MC38_sgStk11 tumor; test: Re-challenge of survived animals of Example 1 with MC38_sgStk11 cells; type: in vivo, Mus musculus; details: off-treatment
Procedure: Summary: A re-challenge study of Example 1 was performed to evaluate whether the survived animals from Example 1 had acquired T memory against the same tumor.
Experimental Design & Materials: The survived animals of the efficacy part were re-challenged with MC38_sgStk11 cells respectively in the opposite side of primary tumors.
The MC38_sgStk11 tumor cells were maintained in vitro as a monolayer culture in DMEM+2 mM glutamine supplemented with about 10% heat inactivated fetal bovine serum, 100 U/ml penicillin and 100 μg/ml streptomycin at about 37° C. in an atmosphere of about 5% CO2 in air. The tumor cells were routinely sub-cultured twice weekly by trypsin-EDTA treatment. The cells growing in an exponential growth phase were harvested and counted for tumor inoculation.
Mice were inoculated subcutaneously at the left lower flank with MC38_sgStk11 tumor cells (0.5×106) in 0.1 ml of PBS for tumor development. The animal numbers and the cell numbers for each group are shown in the experimental design (Table 2-1). The survived animals from the Example 1 were under post-treatment monitoring for 21 days before re-challenge.
All the procedures related to animal handling, care and the treatment in the study were performed according to the guidelines approved by the Institutional Animal Care and Use Committee (IACUC) of vendor following the guidance of the Association for Assessment and Accreditation of Laboratory Animal Care (AAALAC). At the time of routine monitoring, the animals were daily checked for any effects of tumor growth and treatments on normal behavior such as mobility, food and water consumption, body weight gain/loss (body weights were measured twice per week), eye/hair matting and any other abnormal effect as stated in the protocol. Death and observed clinical signs were recorded on the basis of the numbers of animals within each subset.
Tumor size was measured three times per week in […] using a caliper, and the volume was expressed in mm3 using the formula: V=0.5 a×b2 where a and b are the long and short diameters of the tumor, respectively.

[2] = target: T1, HDAC10 (Homo sapiens, UniProt Q969S8); test: Cellular NanoBRET assay, HDAC10; type: cell-based
T1 construct: expressed in transfected cells
T1 sequence (Q969S8 whole entry): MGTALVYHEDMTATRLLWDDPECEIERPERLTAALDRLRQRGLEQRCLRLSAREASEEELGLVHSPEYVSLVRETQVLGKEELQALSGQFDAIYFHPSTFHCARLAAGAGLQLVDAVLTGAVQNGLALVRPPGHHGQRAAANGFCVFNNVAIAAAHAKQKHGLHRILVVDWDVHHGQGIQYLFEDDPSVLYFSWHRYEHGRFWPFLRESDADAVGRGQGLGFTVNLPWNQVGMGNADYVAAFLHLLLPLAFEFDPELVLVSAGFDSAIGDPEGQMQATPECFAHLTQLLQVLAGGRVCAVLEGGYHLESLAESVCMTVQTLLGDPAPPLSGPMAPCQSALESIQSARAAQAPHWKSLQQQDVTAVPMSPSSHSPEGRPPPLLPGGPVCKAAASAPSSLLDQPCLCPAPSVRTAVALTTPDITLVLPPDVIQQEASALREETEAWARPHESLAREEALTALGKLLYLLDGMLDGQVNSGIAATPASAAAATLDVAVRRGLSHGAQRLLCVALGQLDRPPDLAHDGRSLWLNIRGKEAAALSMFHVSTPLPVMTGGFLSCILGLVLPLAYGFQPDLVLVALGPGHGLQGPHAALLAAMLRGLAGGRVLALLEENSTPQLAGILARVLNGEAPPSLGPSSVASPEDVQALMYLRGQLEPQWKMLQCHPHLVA

[3] = tested on: CoREST complex; test: Fluorescence-based deacetylase assay of cell-derived HDAC complex, CoREST; type: biochemical
Excerpt: The HDAC inhibition was profiled in a fluorescence-based deacetylase assay.

[4] = Pharmacokinetics in rats; type: in vivo, Sprague Dawley rats; details: rat, plasma
Procedure: The pharmacokinetics (PK) of Compound I in rats was determined following single IV bolus of 1 mg/kg in 20% wt/vol HPβCD, 1% vol/vol DMSO in saline or single PO dose of 3 mg/kg in 0.5% methylcellulose (MC) in water to male Sprague Dawley rats (fed for IV, fasted for PO). Plasma samples were collected from 3 animals/group at 0.05, 0.25, 0.5, 1, 2, 3, 4 8, and 24 hours after dosing.

[5] = Pharmacokinetics in cynomolgus monkeys; type: in vivo; details: cynomolgus monkey, plasma
Procedure: The PK of Compound I in male cynomolgus monkeys was determined in plasma following single IV bolus and PO administration to non-naïve male cynomolgus s monkeys The vehicle used for IV was 20% wt/vol HPβCD, 1% vol/vol DMSO in saline and for PO was in 0.5% MC (suspension). Plasma samples were collected from 3 animals/group at 0.083, 0.25, 0.5, 1, 3, 6, 9, 12, 24, and 48 hours after dosing.

[6] = Stability in human liver microsomes; type: in vitro ADME; details: 240 minutes; HLM protein concentration 0.6 mg/ml
Procedure: Drug metabolizing enzymes involved in the biotransformation of Compound I were investigated using human liver microsomes (HLM) and recombinant enzymes. Compound I was stable in HLMs (>93% remaining after 240 minutes of incubation with HLM protein concentration at 0.6 mg/ml). CYP selective inhibitor experiments were not performed due to lack of appreciable Compound I turnover.

[7] = target: CYP3A4 (Homo sapiens, UniProt P08684); test: CYP3A4 (Table 5); type: in vitro ADME; details: test not described
Chain of CYP3A4 (P08684 whole entry): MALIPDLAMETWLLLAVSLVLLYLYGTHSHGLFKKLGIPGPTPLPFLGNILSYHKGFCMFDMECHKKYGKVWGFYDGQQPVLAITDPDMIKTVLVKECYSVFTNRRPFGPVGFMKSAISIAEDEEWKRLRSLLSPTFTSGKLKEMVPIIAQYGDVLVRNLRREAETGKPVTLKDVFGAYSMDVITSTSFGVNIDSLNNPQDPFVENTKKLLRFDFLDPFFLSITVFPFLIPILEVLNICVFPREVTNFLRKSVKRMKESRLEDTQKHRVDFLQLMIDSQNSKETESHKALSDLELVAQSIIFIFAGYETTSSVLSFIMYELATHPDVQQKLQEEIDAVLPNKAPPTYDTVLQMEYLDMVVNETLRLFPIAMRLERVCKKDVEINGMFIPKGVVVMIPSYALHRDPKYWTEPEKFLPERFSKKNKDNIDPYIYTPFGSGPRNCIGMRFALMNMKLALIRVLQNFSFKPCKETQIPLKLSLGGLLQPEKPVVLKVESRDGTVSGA

[8] = Predicted human PK; details: calculated from rodent and dog data
Procedure: The human PK parameters for a dose of Compound I that is predicted to be efficacious were calculated based on the data from rodent and dog studies and are presented in Table 6.

[9] = Free fraction in mouse plasma; type: in vitro ADME; details: C57BL/6 mouse plasma
[10] = tested on: A549 cells; test: Nanostring PanCancer IO360 profiling of A549 cells; type: cell-based; details: 96 hours; dose that increased H3K9Ac two-fold; vs vorinostat and domatinostat
Procedure: In this example, the gene expression changes between CoreDAC and other HDAC inhibitors was determined by Nanostring profiling.
Cells were harvested and Nanostring profiling using the PanCancer IO360 panel was performed on the three treatment groups (FIGS. 11A-C). The top three ranked gene ontology groups for each compound as determined from the Nanostring data in (FIGS. 11A-C top panel) were determined using the nSolver software (FIGS. 11A-C bottom panel).

SMILES: C[S@@](=N)(=O)c1ccc(C(=O)Nc2cc(-c3ccc(F)cc3)ccc2N)cc1 [Compound I, (R)—N-(4-amino-4′-fluoro-[1,1′-biphenyl]-3-yl)-4-(S-methylsulfonimidoyl)benzamide]
- Tumor Volume after re-challenge ([1]; Re-challenge Gr 2: survivor of Ex. 1 Gr. 5 (Anti-IgG2a + Compound I 75 mg/kg), day 0 after cell inoculation): 0 mm^3
- Tumor Volume after re-challenge ([1]; Re-challenge Gr 2: survivor of Ex. 1 Gr. 5 (Anti-IgG2a + Compound I 75 mg/kg), day 3 after cell inoculation): 17 mm^3
- Tumor Volume after re-challenge ([1]; Re-challenge Gr 2: survivor of Ex. 1 Gr. 5 (Anti-IgG2a + Compound I 75 mg/kg), day 5 after cell inoculation): 25 mm^3
- Tumor Volume after re-challenge ([1]; Re-challenge Gr 2: survivor of Ex. 1 Gr. 5 (Anti-IgG2a + Compound I 75 mg/kg), day 8 after cell inoculation): 6 mm^3
- Tumor Volume after re-challenge ([1]; Re-challenge Gr 2: survivor of Ex. 1 Gr. 5 (Anti-IgG2a + Compound I 75 mg/kg), day 10 after cell inoculation): 0 mm^3
- Tumor Volume after re-challenge ([1]; Re-challenge Gr 2: survivor of Ex. 1 Gr. 5 (Anti-IgG2a + Compound I 75 mg/kg), day 12 after cell inoculation): 0 mm^3
- Tumor Volume after re-challenge ([1]; Re-challenge Gr 2: survivor of Ex. 1 Gr. 5 (Anti-IgG2a + Compound I 75 mg/kg), day 15 after cell inoculation): 0 mm^3
- Tumor Volume after re-challenge ([1]; Re-challenge Gr 2: survivor of Ex. 1 Gr. 5 (Anti-IgG2a + Compound I 75 mg/kg), day 17 after cell inoculation): 0 mm^3
- Tumor Volume after re-challenge ([1]; Re-challenge Gr 2: survivor of Ex. 1 Gr. 5 (Anti-IgG2a + Compound I 75 mg/kg), day 19 after cell inoculation): 0 mm^3
- Tumor Volume after re-challenge ([1]; Re-challenge Gr 7: survivors of Ex. 1 Gr. 12 (head prints Anti-IgG2a + Compound I 150 mg/kg D0-D4, 100 mg/kg D5-D48), day 0 after cell inoculation): 0 ± 0 mm^3
- Tumor Volume after re-challenge ([1]; Re-challenge Gr 7: survivors of Ex. 1 Gr. 12 (head prints Anti-IgG2a + Compound I 150 mg/kg D0-D4, 100 mg/kg D5-D48), day 3 after cell inoculation): 27 ± 2 mm^3
- Tumor Volume after re-challenge ([1]; Re-challenge Gr 7: survivors of Ex. 1 Gr. 12 (head prints Anti-IgG2a + Compound I 150 mg/kg D0-D4, 100 mg/kg D5-D48), day 5 after cell inoculation): 27 ± 1 mm^3
- Tumor Volume after re-challenge ([1]; Re-challenge Gr 7: survivors of Ex. 1 Gr. 12 (head prints Anti-IgG2a + Compound I 150 mg/kg D0-D4, 100 mg/kg D5-D48), day 8 after cell inoculation): 6 ± 0 mm^3
- Tumor Volume after re-challenge ([1]; Re-challenge Gr 7: survivors of Ex. 1 Gr. 12 (head prints Anti-IgG2a + Compound I 150 mg/kg D0-D4, 100 mg/kg D5-D48), day 10 after cell inoculation): 0 ± 0 mm^3
- Tumor Volume after re-challenge ([1]; Re-challenge Gr 7: survivors of Ex. 1 Gr. 12 (head prints Anti-IgG2a + Compound I 150 mg/kg D0-D4, 100 mg/kg D5-D48), day 12 after cell inoculation): 0 ± 0 mm^3
- Tumor Volume after re-challenge ([1]; Re-challenge Gr 7: survivors of Ex. 1 Gr. 12 (head prints Anti-IgG2a + Compound I 150 mg/kg D0-D4, 100 mg/kg D5-D48), day 15 after cell inoculation): 0 ± 0 mm^3
- Tumor Volume after re-challenge ([1]; Re-challenge Gr 7: survivors of Ex. 1 Gr. 12 (head prints Anti-IgG2a + Compound I 150 mg/kg D0-D4, 100 mg/kg D5-D48), day 17 after cell inoculation): 0 ± 0 mm^3
- Tumor Volume after re-challenge ([1]; Re-challenge Gr 7: survivors of Ex. 1 Gr. 12 (head prints Anti-IgG2a + Compound I 150 mg/kg D0-D4, 100 mg/kg D5-D48), day 19 after cell inoculation): 0 ± 0 mm^3
- IC50 [2]: > 30 µM
- selectivity for CoREST deacetylase compared to NCOR, NuRD, and Sin3 [3]: significant selectivity; also recorded: selective for the CoREST complex
- half-life ([4]; male, Sprague Dawley): 4.8 h
- clearance ([4]; male, Sprague Dawley, intravenous, 1 mg/kg, read-out: CL, p): 7.7 mL/min/kg
- bioavailability ([4]; male Sprague Dawley rats, PO 3 mg/kg in 0.5% MC, fasted, IV 1 mg/kg, read-out: PO bioavailability (% F)): 95.4% and 95%
- bioavailability ([5]; po, male cynomolgus monkeys, suspension at 3 mg/kg, fed, read-out: PO bioavailability (% F)): 83%
- half-life ([5]; male): 6.8 h
- clearance ([5]; male, intravenous, read-out: CL, p): 9.4 mL/min/kg
- remaining after incubation with HLM [6]: > 93%
- CYP3A4 [7]: No signal
- % F [8]: 78%
- MRT [8]: 9.5 h
- T1/2 [8]: 6.6 h
- Total AUC ([8]; dose predicted to be efficacious): 6300 ng·h/mL
- fraction unbound [9]: 0.101
- number of genes regulated [10]: regulates the expression of fewer genes

Source: patent US20260041653A1, “AN HDAC INHIBITOR FOR TREATING CANCER WITH A MODIFIED STK11 ACTIVITY OR EXPRESSION” (Tango Therapeutics, Inc., priority 2022, published 2026)
